Results on 18 compounds are retold here after patent publication US20260000676A1, “CHROMAN DERIVATIVES AS ESTROGEN RECEPTOR DEGRADERS” (THE REGENTS OF THE UNIVERSITY OF MICHIGAN, priority 2022, published 2026).

The structures appear in SMILES notation. Structures can show the parent of a compound that is named as a salt.

Usually IC50 stands for the concentration that inhibits the measured activity by half. By DC50 is commonly meant the concentration at which degradation of the target reaches its halfway point. A high value points to degradation only at high concentration. As a reminder, the Dmax is the greatest extent of degradation seen. A low value points to a partial loss of target.

One assay has as its target CRBN/DDB1 (Homo sapiens (Human), UniProt Q96SW2). The experiment in a line: HTRF binding assay to CRBN/DDB1. The settings on record: read-out: CRBN HTRF IC50. The protocol:
The binding potency was determined using HTRF assay technology (Perkin Elmer). Compounds were serially diluted in DMSO and 0.2 μL volume was transferred to white 384-well plate.
(In TR-FRET formats the signal depends on donor and acceptor labels being close together.)

The target of assay [1] is T1, ER (Homo sapiens (Human), UniProt P03372). In words: In-cell western (ICW) ER degradation assay in MCF-7 cells. The format is cell-based. The following applies: MCF7, 16 hrs; for DC50: ER degradation; for Dmax: MCF7, maximal ER degradation.
T1 sequence (P03372 whole entry): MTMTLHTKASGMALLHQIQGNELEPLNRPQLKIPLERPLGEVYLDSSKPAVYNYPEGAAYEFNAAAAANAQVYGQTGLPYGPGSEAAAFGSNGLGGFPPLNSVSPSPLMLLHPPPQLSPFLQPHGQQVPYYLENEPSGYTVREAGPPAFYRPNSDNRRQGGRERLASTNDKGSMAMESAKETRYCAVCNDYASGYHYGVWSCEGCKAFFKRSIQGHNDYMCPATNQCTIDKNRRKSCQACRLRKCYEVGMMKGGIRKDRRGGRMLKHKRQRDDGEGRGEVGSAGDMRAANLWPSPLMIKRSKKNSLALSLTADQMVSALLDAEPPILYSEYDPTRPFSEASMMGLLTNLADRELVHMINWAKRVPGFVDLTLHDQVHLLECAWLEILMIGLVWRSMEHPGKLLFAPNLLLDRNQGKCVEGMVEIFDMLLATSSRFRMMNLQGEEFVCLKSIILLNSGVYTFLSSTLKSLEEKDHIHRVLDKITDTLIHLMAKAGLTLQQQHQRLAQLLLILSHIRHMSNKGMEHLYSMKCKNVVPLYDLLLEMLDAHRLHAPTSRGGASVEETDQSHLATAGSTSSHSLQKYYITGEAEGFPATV
In assay [2] the target is T1, ER. The experiment in a line: In-cell western (ICW) ER degradation assay in T47D cells. The following applies: 16 hrs; for DC50: ER degradation. In kind it is cell-based.

Sequence of CRBN/DDB1 (Q96SW2 whole entry): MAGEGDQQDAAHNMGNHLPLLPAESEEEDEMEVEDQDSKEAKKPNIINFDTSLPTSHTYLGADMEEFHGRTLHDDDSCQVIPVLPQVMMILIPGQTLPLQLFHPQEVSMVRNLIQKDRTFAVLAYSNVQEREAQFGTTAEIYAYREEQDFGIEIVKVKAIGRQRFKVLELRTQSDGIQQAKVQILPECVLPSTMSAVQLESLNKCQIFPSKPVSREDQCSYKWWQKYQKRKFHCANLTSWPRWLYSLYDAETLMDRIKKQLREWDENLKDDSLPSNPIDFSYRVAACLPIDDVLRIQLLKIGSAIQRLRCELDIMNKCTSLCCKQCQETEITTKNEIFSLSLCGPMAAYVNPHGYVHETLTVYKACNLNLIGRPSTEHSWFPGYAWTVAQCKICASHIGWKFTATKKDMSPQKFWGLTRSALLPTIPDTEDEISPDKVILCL
Sequence of CRBN/DDB1 (Q16531 whole entry partner): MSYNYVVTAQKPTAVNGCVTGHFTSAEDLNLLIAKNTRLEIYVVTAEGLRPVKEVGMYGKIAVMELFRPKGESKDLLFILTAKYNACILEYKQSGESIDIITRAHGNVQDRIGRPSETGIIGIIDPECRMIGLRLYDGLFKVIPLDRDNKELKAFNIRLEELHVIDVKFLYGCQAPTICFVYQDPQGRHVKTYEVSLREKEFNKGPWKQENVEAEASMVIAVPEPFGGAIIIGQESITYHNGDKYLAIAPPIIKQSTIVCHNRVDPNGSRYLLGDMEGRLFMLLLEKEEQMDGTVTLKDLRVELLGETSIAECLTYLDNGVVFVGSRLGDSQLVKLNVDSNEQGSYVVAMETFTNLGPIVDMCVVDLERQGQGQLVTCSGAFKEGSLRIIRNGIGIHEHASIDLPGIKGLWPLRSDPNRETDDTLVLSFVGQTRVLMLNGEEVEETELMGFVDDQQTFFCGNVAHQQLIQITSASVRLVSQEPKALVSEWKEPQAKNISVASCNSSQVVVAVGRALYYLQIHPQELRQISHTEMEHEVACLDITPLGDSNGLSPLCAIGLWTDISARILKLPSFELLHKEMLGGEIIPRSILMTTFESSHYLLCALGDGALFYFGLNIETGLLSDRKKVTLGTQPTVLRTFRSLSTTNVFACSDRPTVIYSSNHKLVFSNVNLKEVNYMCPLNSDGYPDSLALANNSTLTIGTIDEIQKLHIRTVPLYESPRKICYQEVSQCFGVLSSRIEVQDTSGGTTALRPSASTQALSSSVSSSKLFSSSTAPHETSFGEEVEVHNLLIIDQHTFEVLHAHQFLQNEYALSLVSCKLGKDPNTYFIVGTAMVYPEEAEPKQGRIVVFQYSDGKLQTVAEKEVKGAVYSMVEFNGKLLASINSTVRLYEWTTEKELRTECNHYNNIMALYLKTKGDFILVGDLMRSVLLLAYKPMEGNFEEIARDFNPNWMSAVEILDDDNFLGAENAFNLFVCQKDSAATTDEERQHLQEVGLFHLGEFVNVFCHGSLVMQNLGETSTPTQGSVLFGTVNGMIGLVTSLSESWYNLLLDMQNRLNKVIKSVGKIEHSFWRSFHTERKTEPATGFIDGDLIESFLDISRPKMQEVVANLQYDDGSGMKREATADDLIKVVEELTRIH

`COc1cc(N2CCC(CN3CCN4c5ccc6c(c5OC[C@H]4C3)CN(C3CCC(=O)NC3=O)C6=O)CC2)c(F)cc1[C@H]1c2ccc(O)cc2OC[C@H]1c1ccccc1` (stereo partly drawn) [Compound A105, (R)-3-((S)-7-((1-(2-fluoro-4-((3R,4R)-7-hydroxy-3-phenylchroman-4-yl)-5-methoxyphenyl)piperidin-4-yl)methyl)-1-oxo-1,3,5,5a,6,7,8,9-octahydro-2H-pyrazino[1′,2′:4,5][1,4]oxazino[2,3-e]isoindol-2-yl)piperidine-2,7-dione]: on CRBN/DDB1, the IC50 was under 0.05 µM. Moreover, the 50% degradation concentration (DC50) on ER [1] was in the range of 0.01 to 0.1 µM; on ER [2], 0.001 to 0.01 µM. Besides, the greatest degradation seen (Dmax) on ER [1] and on ER [2] (maximal ER degradation) was 25 to 50% each time.

Take `O=C1CCC(NC(=O)c2ccc3c(n2)OC[C@H]2CN(CC4CC5(CCN(c6ccc([C@@H]7c8ccc(O)cc8OC[C@@H]7c7ccccc7)cc6)CC5)C4)CCN32)C(=O)N1` (stereo partly drawn) [Compound A93, (4aR)-N-(2,6-dioxopiperidin-3-yl)-3-((7-(4-((3S,4R)-7-hydroxy-3-phenylchroman-4-yl)phenyl)-7-azaspiro[3.5]nonan-2-yl)methyl)-1,2,3,4,4a,5-hexahydropyrazino[1,2-d]pyrido[2,3-b][1,4]oxazine-8-carboxamide]: the half-inhibitory concentration (IC50) at CRBN/DDB1 lay in the range of 0.5 to 5 µM. The DC50 is 0.001 to 0.01 µM at ER [1] and under 0.001 µM on ER [2]. Besides, the Dmax at ER [1] and at ER [2] (maximal ER degradation) was 50 to 75% each time.

Take `O=C1CCC(Nc2ccc(C3CCN(CC4CC5(CCN(c6ccc([C@@H]7c8ccc(O)cc8OC[C@@H]7c7ccccc7)cc6)CC5)C4)CC3)c(F)c2)C(=O)N1` (single isomer, unassigned) [Compound A75]: on CRBN/DDB1, the IC50 lay in the range of 0.05 to 0.5 µM. The values for the half-maximal degradation concentration (DC50) on ER [1] and at ER [2] were under 0.001 µM and 0.001 to 0.01 µM, respectively. For the same compound, the Dmax at ER [1] was 25 to 50%; at ER [2] (maximal ER degradation), 50 to 75%.

`O=C1CC[C@@H](N2Cc3cc4c(cc3C2=O)OC[C@@H]2CN(C[C@@H]3COC5(CCN(c6ccc([C@H]7c8ccc(O)cc8OC[C@H]7c7ccccc7)cc6)CC5)C3)CCN42)C(=O)N1` [Compound A151, (R)-3-((S)-3-(((R)-8-(4-((3R,4S)-7-hydroxy-3-phenylchroman-4-yl)phenyl)-1-oxa-8-azaspiro[4.5]decan-3-yl)methyl)-8-oxo-1,2,3,4,4a,5,8,10-octahydro-9H-pyrazino[1′,2′:4,5][1,4]oxazino[2,3-f]isoindol-9-yl)piperidine-2,6-dione]: the IC50 on CRBN/DDB1 was in the range of 0.05 to 0.5 µM. Also, the half-maximal degradation concentration (DC50) on ER [1] and at ER [2] was under 0.001 µM throughout. Moreover, the maximal degradation (Dmax) at ER [1] and on ER [2] (maximal ER degradation) was 50 to 75% each time.

Take `O=C1CCC(N2Cc3cc4c(cc3C2=O)OC[C@@H]2CN(CC3CCN(c5ccc([C@@H]6c7ccc(O)cc7OC[C@@H]6c6ccccc6)cn5)CC3)CCN42)C(=O)N1` (single isomer, unassigned) [Compound A70]: at CRBN/DDB1, the IC50 fell in the range of 0.05 to 0.5 µM. Moreover, the DC50 at ER [1] is over 0.1 µM; on ER [2], 0.001 to 0.01 µM.

In the case of `O=C1CCC(Nc2ccc3c(c2)OC[C@H]2CN(CC4CCN(c5ccc([C@@H]6c7ccc(O)cc7OC[C@@H]6c6ccccc6)cc5)CC4)CCN32)C(=O)N1` (single isomer, unassigned) [Compound A91, hydrochloride], at CRBN/DDB1, the half-inhibitory concentration (IC50) was over 5 µM. Moreover, the DC50 on ER [1] and at ER [2] was 0.001 to 0.01 µM throughout.

`O=C1CCC(N2Cc3cc4c(cc3C2=O)OC[C@@H]2CN(CC3CCC5(CC3)CN(c3ccc([C@@H]6c7ccc(O)cc7OC[C@@H]6c6ccccc6)cc3)C5)CCN42)C(=O)N1` (stereo partly drawn) [Compound A63, 3-((S)-3-((2-(4-((3S,4R)-7-hydroxy-3-phenylchroman-4-yl)phenyl)-2-azaspiro[3.5]nonan-7-yl)methyl)-8-oxo-1,2,3,4,4a,5,8,10-octahydro-9H-pyrazino[1′,2′:4,5][1,4]oxazino[2,3-f]isoindol-9-yl)piperidine-2,6-dione]: the IC50 on CRBN/DDB1 lay in the range of 0.5 to 5 µM. In addition, the DC50 at ER [1] and at ER [2] was over 0.1 µM each time. Besides, the “MCF7 Dmax %” value at ER [1] (maximal ER degradation) is recorded as “D (“D”; <25%)”. In addition, the “T47D Dmax %” value on ER [2] (maximal ER degradation) is reported as “D (“D”; <25%)”.

For the compound `O=C1CC[C@@H](N2Cc3c(ccc4c3OC[C@@H]3CN(CC5COC6(CCN(c7ccc([C@@H]8c9ccc(O)cc9OC[C@@H]8c8ccccc8)cc7F)CC6)C5)CCN43)C2=O)C(=O)N1` (single isomer, unassigned) [Compound A158], the half-inhibitory concentration (IC50) on CRBN/DDB1 is under 0.05 µM. In addition, the DC50 at ER [1] and on ER [2] was under 0.001 µM each time.

For `O=C1CC[C@@H](Nc2ccc(C3CCN(C[C@H]4COC5(CCN(c6ccc([C@H]7c8ccc(O)cc8OC[C@H]7c7ccccc7)cc6)CC5)C4)CC3)c(F)c2)C(=O)N1` (single isomer, unassigned) [Compound A164], the IC50 at CRBN/DDB1 is under 0.05 µM. Also, the DC50 at ER [1] is under 0.001 µM; on ER [2], 0.001 to 0.01 µM. Further, the Dmax at ER [1] was in the range of 25 to 50%; at ER [2] (maximal ER degradation), 50 to 75%.

For the compound `O=C1CCN(c2ccc(N3CCC4(CC3)CC(CN3CCN(c5ccc([C@H]6c7ccc(O)cc7OC[C@H]6c6ccccc6)cc5)CC3)C4)cc2)C(=O)N1` (single isomer, unassigned) [Compound A107], the IC50 at CRBN/DDB1 is over 5 µM. The 50% degradation concentration (DC50) is 0.001 to 0.01 µM on ER [1] and under 0.001 µM at ER [2]. The greatest degradation seen (Dmax) at ER [1] and at ER [2] (maximal ER degradation) was 25 to 50% throughout.

Take `O=C1CC[C@@H](Nc2ccc(C3CCN(C[C@H]4COC5(CCN(c6ccc([C@@H]7c8ccc(O)cc8OC[C@@H]7c7ccccc7)cc6)CC5)C4)CC3)c(F)c2)C(=O)N1` (single isomer, unassigned) [Compound A163]: at CRBN/DDB1, the IC50 was 0.05 to 0.5 µM. The DC50 on ER [1] and at ER [2] was under 0.001 µM in each case. The Dmax is 25 to 50% on ER [1] and 50 to 75% at ER [2] (maximal ER degradation).

For the compound `O=C1CC[C@@H](Nc2ccc(C3CCN(CC4CCC5(CC4)CN(c4ccc([C@@H]6c7ccc(O)cc7OC[C@@H]6c6ccccc6)cc4)C5)CC3)cc2)C(=O)N1` (single isomer, unassigned) [Compound A141], at CRBN/DDB1, the half-inhibitory concentration (IC50) fell in the range of 0.05 to 0.5 µM. For the same compound, the half-maximal degradation concentration (DC50) on ER [1] and on ER [2] was 0.001 to 0.01 µM each time. For the same compound, the maximal degradation (Dmax) at ER [1] and on ER [2] (maximal ER degradation) was 50 to 75% in each case.

On to `O=C1CCC(N2C(=O)c3cc4c(cc3C2=O)CN(C(=O)CN2CCC3(CC2)CCN(c2ccc([C@H]5c6ccc(O)cc6OC[C@H]5c5ccccc5)cc2)CC3)C4)C(=O)N1` (single isomer, unassigned) [Compound A54, formate], for which, at CRBN/DDB1, the IC50 fell in the range of 0.5 to 5 µM. The figures for the half-maximal degradation concentration (DC50) at ER [1] and on ER [2] were 0.01 to 0.1 µM and 0.001 to 0.01 µM, respectively. The Dmax at ER [1] was 25 to 50%; on ER [2] (maximal ER degradation) it was at least 75%.

Take `O=C1CCC(NC(=O)c2ccc3c(n2)OC[C@H]2CN(CC4CCN(c5ccc([C@H]6c7ccc(O)cc7OC[C@H]6c6ccccc6)cc5F)CC4)CCN32)C(=O)N1` (stereo partly drawn) [Compound A103, (4aR)-N-(2,6-dioxopiperidin-3-yl)-3-((1-(2-fluoro-4-((3R,4S)-7-hydroxy-3-phenylchroman-4-yl)phenyl)piperidin-4-yl)methyl)-1,2,3,4,4a,5-hexahydropyrazino[1,2-d]pyrido[2,3-b][1,4]oxazine-8-carboxamide]: at CRBN/DDB1, the IC50 was in the range of 0.5 to 5 µM. For the same compound, the DC50 on ER [1] and on ER [2] was 0.001 to 0.01 µM throughout. Moreover, the greatest degradation seen (Dmax) at ER [1] and on ER [2] (maximal ER degradation) was 50 to 75% each time.

Regarding `O=C1CCC(NC(=O)c2ccc(N3CCN(CC4CC5(CCN(c6ccc([C@@H]7c8ccc(O)cc8OC[C@@H]7c7ccccc7)cc6)CC5)C4)CC3)cn2)C(=O)N1` (stereo partly drawn) [Compound A85, N-(2,6-dioxopiperidin-3-yl)-5-(4-((7-(4-((3S,4R)-7-hydroxy-3-phenylchroman-4-yl)phenyl)-7-azaspiro[3.5]nonan-2-yl)methyl)piperazin-1-yl)picolinamide], on CRBN/DDB1, the half-inhibitory concentration (IC50) is over 5 µM. Moreover, the half-maximal degradation concentration (DC50) was under 0.001 µM at ER [1] and 0.001 to 0.01 µM on ER [2]. Besides, the maximal degradation (Dmax) on ER [1] and at ER [2] (maximal ER degradation) was 50 to 75% in each case.

On to `COc1cc(N2CCC(CN3CCN4c5cc6c(cc5OC[C@H]4C3)C(=O)N(C3CCC(=O)NC3=O)C6)CC2)ccc1[C@H]1c2ccc(O)cc2OC[C@H]1c1ccccc1` (stereo partly drawn) [Compound A74, 3-((R)-3-((1-(4-((3R,4S)-7-hydroxy-3-phenylchroman-4-yl)-3-methoxyphenyl)piperidin-4-yl)methyl)-8-oxo-1,2,3,4,4a,5,8,10-octahydro-9H-pyrazino[1′,2′:4,5][1,4]oxazino[2,3-f]isoindol-9-yl)piperidine-2,6-dione], for which, at CRBN/DDB1, the IC50 fell in the range of 0.5 to 5 µM. For the same compound, the half-maximal degradation concentration (DC50) was under 0.001 µM at ER [1] and 0.001 to 0.01 µM at ER [2]. Besides, the Dmax was under 25% at ER [1] and 25 to 50% on ER [2] (maximal ER degradation).

Consider `COc1cc(N2CCC(CN3CCN4c5ccc(C(=O)NC6CCC(=O)NC6=O)nc5OC[C@H]4C3)CC2)ccc1C1c2ccc(O)cc2OCC1c1ccccc1` (stereo in doubt) [Compound A134, (4aR)—N-(2,6-dioxopiperidin-3-yl)-3-((1-(4-((3R,4S)-7-hydroxy-3-phenylchroman-4-yl)-3-methoxyphenyl)piperidin-4-yl)methyl)-1,2,3,4,4a, 5-hexahydropyrazino[1,2-d]pyrido[2,3-b][1,4]oxazine-8-carboxamide], for which the IC50 on CRBN/DDB1 was in the range of 0.5 to 5 µM. For the same compound, the DC50 on ER [1] and at ER [2] was under 0.001 µM in each case. Also, the Dmax at ER [1] and at ER [2] (maximal ER degradation) was at least 75% throughout.

On to `O=C1CCC(N2Cc3cc4c(cc3C2=O)OC[C@@H]2CN(CC3CCN(c5ccc([C@H]6c7ccc(O)cc7OC[C@H]6c6ccccc6)cn5)CC3)CCN42)C(=O)N1` (single isomer, unassigned) [Compound A61], for which the IC50 at CRBN/DDB1 was in the range of 0.05 to 0.5 µM. Also, the DC50 on ER [1] and at ER [2] was 0.001 to 0.01 µM in each case. Also, the results for the Dmax on ER [1] and on ER [2] (maximal ER degradation) were 25 to 50% and 50 to 75%, respectively.
